How the values were obtained:
Experiment in all cases: KINOMEscan competition binding
Conditions in all cases: compound 10.0 µM
[1] = system: KIT (human), P10721 [D816V]
[2] = system: ABL1 (human), P00519 [E255K]
[3] = system: ABL1 (human), P00519 [M351T]
[4] = system: FLT3 (human), P36888 [K663Q]
[5] = system: EGFR (human), P00533 [G719S]
[6] = system: EGFR (human), P00533 [P753S; 747-752 del]
[7] = system: PIK3CA (human), P42336 [I800L]
[8] = system: PIK3CA (human), P42336 [C420R]
[9] = system: KIT (human), P10721 [V559D]
[10] = system: KIT (human), P10721 [V559D/T670I]
[11] = system: EGFR (human), P00533 [746-750 del]
[12] = system: PIK3CA (human), P42336 [E545A]
[13] = system: FLT3 (human), P36888 [N841I]
[14] = system: PIK3CA (human), P42336 [Q546K]
[15] = system: FLT3 (human), P36888 [ITD]
[16] = system: PIK3CA (human), P42336 [H1047Y]
[17] = system: EIF2AK4 KD2 (human), Q9P2K8 [S808G]
[18] = system: EGFR (human), P00533 [L861Q]
[19] = system: PIK3CA (human), P42336 [E545K]
Chain of PIK3CA (human), P42336 [E545K] (P42336 whole entry E545K, looked up): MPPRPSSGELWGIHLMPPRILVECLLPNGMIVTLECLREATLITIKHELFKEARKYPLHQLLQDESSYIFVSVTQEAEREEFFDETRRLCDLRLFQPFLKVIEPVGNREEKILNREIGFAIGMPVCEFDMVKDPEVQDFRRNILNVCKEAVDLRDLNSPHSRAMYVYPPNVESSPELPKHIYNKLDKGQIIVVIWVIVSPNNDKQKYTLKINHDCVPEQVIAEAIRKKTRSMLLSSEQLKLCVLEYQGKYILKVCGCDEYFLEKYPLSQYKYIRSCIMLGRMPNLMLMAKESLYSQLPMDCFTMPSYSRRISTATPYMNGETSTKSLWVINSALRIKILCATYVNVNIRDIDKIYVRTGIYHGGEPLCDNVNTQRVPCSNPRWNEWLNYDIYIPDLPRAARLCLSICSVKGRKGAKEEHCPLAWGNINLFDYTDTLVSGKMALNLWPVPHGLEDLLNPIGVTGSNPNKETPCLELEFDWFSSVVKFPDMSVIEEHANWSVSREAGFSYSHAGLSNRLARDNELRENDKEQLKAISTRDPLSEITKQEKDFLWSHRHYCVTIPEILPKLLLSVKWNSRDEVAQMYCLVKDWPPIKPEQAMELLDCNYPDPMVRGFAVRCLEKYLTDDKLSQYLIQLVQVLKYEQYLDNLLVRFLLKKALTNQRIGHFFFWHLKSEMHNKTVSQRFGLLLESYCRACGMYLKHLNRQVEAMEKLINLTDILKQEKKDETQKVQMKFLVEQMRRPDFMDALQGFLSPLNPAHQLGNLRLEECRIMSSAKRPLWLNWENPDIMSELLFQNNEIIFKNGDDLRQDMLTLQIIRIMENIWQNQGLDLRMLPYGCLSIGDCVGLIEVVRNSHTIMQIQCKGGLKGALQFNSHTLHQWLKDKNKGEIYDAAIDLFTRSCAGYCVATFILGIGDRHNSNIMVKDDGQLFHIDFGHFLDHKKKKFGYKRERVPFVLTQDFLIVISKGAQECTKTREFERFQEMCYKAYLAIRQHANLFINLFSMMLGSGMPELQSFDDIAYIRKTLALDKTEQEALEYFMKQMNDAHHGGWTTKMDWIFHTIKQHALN

Chain of KIT (human), P10721 [V559D] (P10721 whole entry V559D, looked up): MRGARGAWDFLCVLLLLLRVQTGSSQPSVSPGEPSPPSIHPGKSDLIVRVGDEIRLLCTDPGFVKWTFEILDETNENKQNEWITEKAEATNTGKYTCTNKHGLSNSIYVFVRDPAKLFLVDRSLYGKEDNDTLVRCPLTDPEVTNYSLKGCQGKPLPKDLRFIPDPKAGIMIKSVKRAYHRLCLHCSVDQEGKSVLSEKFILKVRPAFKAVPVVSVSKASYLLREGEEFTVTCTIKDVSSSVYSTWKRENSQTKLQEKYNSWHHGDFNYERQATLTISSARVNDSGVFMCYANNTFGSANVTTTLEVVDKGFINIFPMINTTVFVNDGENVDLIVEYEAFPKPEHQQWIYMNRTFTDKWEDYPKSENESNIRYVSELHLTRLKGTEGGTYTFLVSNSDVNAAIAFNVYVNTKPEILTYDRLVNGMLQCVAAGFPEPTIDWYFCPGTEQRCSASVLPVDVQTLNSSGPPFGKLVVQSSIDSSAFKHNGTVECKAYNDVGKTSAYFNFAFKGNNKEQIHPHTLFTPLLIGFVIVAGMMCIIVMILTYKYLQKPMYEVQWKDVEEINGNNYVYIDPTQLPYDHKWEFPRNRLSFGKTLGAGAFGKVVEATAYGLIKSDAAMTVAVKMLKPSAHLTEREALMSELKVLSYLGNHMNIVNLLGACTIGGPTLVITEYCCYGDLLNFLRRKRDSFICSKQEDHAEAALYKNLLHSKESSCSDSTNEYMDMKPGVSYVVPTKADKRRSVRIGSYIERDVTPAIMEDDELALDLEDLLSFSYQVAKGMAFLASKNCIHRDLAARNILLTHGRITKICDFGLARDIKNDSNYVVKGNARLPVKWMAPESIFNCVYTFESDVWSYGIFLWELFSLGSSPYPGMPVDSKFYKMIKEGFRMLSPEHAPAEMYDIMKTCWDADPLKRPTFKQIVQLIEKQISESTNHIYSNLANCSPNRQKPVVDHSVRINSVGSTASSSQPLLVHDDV
Chain of PIK3CA (human), P42336 [Q546K] (P42336 whole entry Q546K, looked up): as the sequence (P42336 whole entry E545K, looked up) above, with K545E, Q546K counted along it
Chain of EIF2AK4 KD2 (human), Q9P2K8 [S808G] (Q9P2K8 whole entry S808G, looked up): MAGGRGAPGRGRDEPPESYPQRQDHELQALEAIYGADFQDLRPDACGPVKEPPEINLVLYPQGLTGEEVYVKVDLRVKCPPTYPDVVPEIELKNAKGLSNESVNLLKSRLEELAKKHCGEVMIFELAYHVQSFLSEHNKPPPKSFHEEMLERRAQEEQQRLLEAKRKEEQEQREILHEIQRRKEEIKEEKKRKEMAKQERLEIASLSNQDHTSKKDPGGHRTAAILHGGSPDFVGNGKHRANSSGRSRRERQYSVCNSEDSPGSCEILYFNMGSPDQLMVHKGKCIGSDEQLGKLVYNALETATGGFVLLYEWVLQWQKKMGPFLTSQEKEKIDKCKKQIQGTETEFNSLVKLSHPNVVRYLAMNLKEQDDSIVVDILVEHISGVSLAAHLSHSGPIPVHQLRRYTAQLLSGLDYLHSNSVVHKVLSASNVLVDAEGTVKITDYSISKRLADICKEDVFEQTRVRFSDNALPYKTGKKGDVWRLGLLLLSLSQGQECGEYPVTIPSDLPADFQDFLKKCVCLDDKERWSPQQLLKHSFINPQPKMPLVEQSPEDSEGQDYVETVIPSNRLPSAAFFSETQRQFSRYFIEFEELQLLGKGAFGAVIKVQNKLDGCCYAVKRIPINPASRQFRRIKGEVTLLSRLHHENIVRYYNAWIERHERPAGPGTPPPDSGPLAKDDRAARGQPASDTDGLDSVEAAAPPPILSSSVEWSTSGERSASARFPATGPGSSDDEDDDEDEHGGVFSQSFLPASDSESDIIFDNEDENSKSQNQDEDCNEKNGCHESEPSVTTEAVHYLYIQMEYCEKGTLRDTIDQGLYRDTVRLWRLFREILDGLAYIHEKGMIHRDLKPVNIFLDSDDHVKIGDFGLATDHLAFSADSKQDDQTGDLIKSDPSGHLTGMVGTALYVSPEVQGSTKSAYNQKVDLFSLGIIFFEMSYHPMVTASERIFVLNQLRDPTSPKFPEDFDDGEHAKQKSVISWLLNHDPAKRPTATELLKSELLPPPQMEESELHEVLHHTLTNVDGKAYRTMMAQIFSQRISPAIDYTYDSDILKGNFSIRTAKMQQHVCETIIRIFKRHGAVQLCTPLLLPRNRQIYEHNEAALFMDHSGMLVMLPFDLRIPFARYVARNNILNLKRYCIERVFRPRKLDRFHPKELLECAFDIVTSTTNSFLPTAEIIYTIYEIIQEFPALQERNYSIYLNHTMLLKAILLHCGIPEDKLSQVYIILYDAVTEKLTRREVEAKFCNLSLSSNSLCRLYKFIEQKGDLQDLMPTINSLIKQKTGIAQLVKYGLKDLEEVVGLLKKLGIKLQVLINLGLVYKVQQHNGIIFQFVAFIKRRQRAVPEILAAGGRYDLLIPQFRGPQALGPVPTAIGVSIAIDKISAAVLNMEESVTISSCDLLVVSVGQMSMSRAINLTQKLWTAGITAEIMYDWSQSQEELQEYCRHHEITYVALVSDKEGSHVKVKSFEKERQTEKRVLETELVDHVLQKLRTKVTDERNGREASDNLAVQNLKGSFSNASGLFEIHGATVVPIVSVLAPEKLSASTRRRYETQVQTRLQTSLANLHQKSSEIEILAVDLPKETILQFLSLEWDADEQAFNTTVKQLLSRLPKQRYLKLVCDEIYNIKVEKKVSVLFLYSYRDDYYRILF
Chain of PIK3CA (human), P42336 [C420R] (P42336 whole entry C420R, looked up): as the sequence (P42336 whole entry E545K, looked up) above, with C420R, K545E counted along it
Chain of PIK3CA (human), P42336 [H1047Y] (P42336 whole entry H1047Y, looked up): as the sequence (P42336 whole entry E545K, looked up) above, with K545E, H1047Y counted along it
Chain of KIT (human), P10721 [D816V] (P10721 whole entry D816V, looked up): as the sequence (P10721 whole entry V559D, looked up) above, with D559V, D816V counted along it
Chain of KIT (human), P10721 [V559D/T670I] (P10721 whole entry V559D/T670I, looked up): as the sequence (P10721 whole entry V559D, looked up) above, with T670I counted along it
Chain of PIK3CA (human), P42336 [E545A] (P42336 whole entry E545A, looked up): as the sequence (P42336 whole entry E545K, looked up) above, with K545A counted along it
Chain of PIK3CA (human), P42336 [I800L] (P42336 whole entry I800L, looked up): as the sequence (P42336 whole entry E545K, looked up) above, with K545E, I800L counted along it

Compound	kinase still bound, per cent of control [1]	kinase still bound, per cent of control [2]	kinase still bound, per cent of control [3]	kinase still bound, per cent of control [4]	kinase still bound, per cent of control [5]	kinase still bound, per cent of control [6]	kinase still bound, per cent of control [7]	kinase still bound, per cent of control [8]	kinase still bound, per cent of control [9]	kinase still bound, per cent of control [10]	kinase still bound, per cent of control [11]	kinase still bound, per cent of control [12]	kinase still bound, per cent of control [13]	kinase still bound, per cent of control [14]	kinase still bound, per cent of control [15]	kinase still bound, per cent of control [16]	kinase still bound, per cent of control [17]	kinase still bound, per cent of control [18]	kinase still bound, per cent of control [19]
CNC(=O)Nc1ccc(-c2nc(N3CC4CCC(C3)O4)c3cnn(C4CCC5(CC4)OCCO5)c3n2)cc1	82%	100%	100%	69%	69%	62%	5%	11%	85%	100%	38%	8.8%	89%	11%	100%	9.6%	83%	64%	11%
COc1cc(C(=O)N2CCC(N3CCN(C)CC3)CC2)ccc1Nc1ncc2c(n1)N(C)c1ccccc1C(=O)N2C	72%	80%	94%	97%	86%	84%	38%	89%	100%	81%	72%	98%	73%	91%	100%	71%	95%	100%	100%
O=C(Nc1cccc(Nc2ncc(Br)c(NCCc3cnc[nH]3)n2)c1)N1CCCC1	0.15%	0.15%	0.5%	0.1%	51%	63%	100%	81%	0.05%	2.3%	62%	94%	0%	46%	0%	62%	0.7%	75%	100%
O=c1cc(N2CCOCC2)oc2c(-c3cccc4c3sc3ccccc34)cccc12	58%	100%	100%	86%	100%	90%	2.2%	19%	80%	100%	69%	8.2%	100%	16%	93%	11%	100%	100%	24%
N#Cc1cc(-c2ccnc(Nc3ccc(-n4cnc(-c5cccnc5)n4)cc3)n2)cc(N2CCOCC2)c1	5.3%	75%	69%	17%	94%	76%	64%	100%	1%	4.2%	67%	58%	12%	75%	28%	100%	3.3%	92%	100%
COc1cc2ncnc(-n3nc(-c4ccccn4)nc3N)c2cc1OC	0.15%	0.4%	1.2%	21%	57%	68%	2.8%	41%	3.4%	47%	50%	18%	0.4%	38%	5.6%	24%	1.6%	64%	40%
COc1cc2ncnc(Nc3cccc(Cl)c3)c2cc1OC	38%	6.6%	1.4%	35%	0.9%	1.4%	46%	60%	16%	49%	3.3%	98%	7.2%	82%	24%	95%	56%	0.1%	71%
O=c1[nH]c2ccccc2n1C1CCN(Cc2ccc(-c3nc4cc5[nH]cnc5cc4nc3-c3ccccc3)cc2)CC1	79%	93%	78%	56%	83%	73%	51%	62%	100%	100%	80%	95%	61%	80%	60%	100%	100%	66%	69%
COc1ccc(N(C(=O)Oc2c(C)cccc2C)c2ccnc(Nc3ccc(N4CCN(C)CC4)cc3)n2)c(OC)c1	3.4%	0.3%	1.3%	3.4%	0.45%	0%	100%	100%	0.25%	48%	0%	45%	0.65%	81%	4.8%	94%	100%	0.1%	100%
CCCS(=O)(=O)Nc1ccc(F)c(C(=O)c2c[nH]c3ncc(Cl)cc23)c1F	49%	46%	46%	17%	72%	85%	91%	100%	0.05%	46%	93%	92%	28%	86%	68%	90%	0.95%	34%	100%

— the kinase profiling compilation of Christmann-Franck et al. (2016)
